Experimental data taken from patent publication US20130172318A1, “ANTI-INFLAMMATORY AGENTS” (priority 2010, published 2013).

Experiments:
[1] = tested on: MCP-1 induced migration of THP-1 cells; settings: MCP-1 induced THP-1 cell migration assay; disclosed in WO2005/053702; cited from earlier work
[2] = tested on: endotoxin-stimulated TNF-alpha levels; assay: Murine sub-lethal endotoxemia model, serum TNF-α by ELISA; assay type: in vivo, mouse; settings: single dose 1 mg/kg p.o. one hour prior to LPS i.p.; female CD1 mice; serum two hours after challenge
Procedure: The anti-inflammatory efficacy of an exemplary compound according to the present invention was tested using the murine sub-lethal endotoxemia model.
Briefly, the method is as follows: Female CD1 mice (28-30 g, ˜7 weeks of age) were dosed with their respective treatment in sterile filtered 1% CMC by oral gavage in a dose volume of 10 ml/kg one hour prior to an endotoxin (LPS) challenge. The endotoxin challenge was injected by the intraperitoneal route containing 675,000 Endotoxin Units of LPS (E. coli strain 0111:B4 (Code L4130)) in endotoxin free PBS. Mice were left for two hours and then exsanguinated under terminal anaesthesia and blood was taken. Serum was prepared from this terminal bleed and aliquoted and stored at −20° C. Serum TNF-α levels were measured by ELISA per manufacturers instructions (R and D Systems).
Eight animals were treated in each group, and the data for the animal with the highest and lowest TNF-α level in each group were eliminated, and the mean and standard error reported for the remaining six animals. Data for untreated animals were taken from an historical control experiment.

Compound	fold more potent as a BSCI than dodecanoyl-3-aminocaprolactam [1] [fold]	inhibition of endotoxin-stimulated TNF-alpha levels [2] [%]
CCCCCCCCCCC(C)(C)C(=O)NC1CCCCNC1=O (centres unmarked) [2′2′-dimethyldodecenanoyl-3-aminocaprolactam]	10	
O=C(N[C@H]1CCCNC1=O)c1ccc(F)cc1 [Example 3, (S)-4-Fluoro-N-(2-oxopiperidin-3-yl)benzamide]		50
